Laboratory results from ChEMBL document CHEMBL1201862, “PubChem BioAssay data set” (2004).
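Dose response: 5 concentrations. Exposure: 48 h. Format: 96-well plates. Endpoint: linear interpolation; highest concentration if not reached. GI50 is the concentration that inhibits growth by half.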 Active and inactive are the calls of the source. Rule as the data show it: active = GI50 up to about 1.1 µM and inactive = higher.

Tests used:
Test in all cases: DTP human tumour cell line panel, 48 h
[1] = tested on: 786-0
[2] = tested on: A498
[3] = tested on: A549
[4] = tested on: ACHN
[5] = tested on: BT-549
[6] = tested on: CAKI-1
[7] = tested on: COLO 205
[8] = tested on: DU-145
[9] = tested on: EKVX
[10] = tested on: HCC 2998
[11] = tested on: HCT-116
[12] = tested on: HCT-15
[13] = tested on: HL-60
[14] = tested on: HOP-92
[15] = tested on: HT-29
[16] = tested on: IGROV-1
[17] = tested on: K562
[18] = tested on: KM12
[19] = tested on: LOX IMVI
[20] = tested on: M14
[21] = tested on: MCF7
[22] = tested on: MDA-MB-231
[23] = tested on: MDA-MB-435
[24] = tested on: MDA-N
[25] = tested on: MOLT-4
[26] = tested on: NCI-H226
[27] = tested on: NCI-H23
[28] = tested on: NCI-H460
[29] = tested on: NCI/ADR-RES
[30] = tested on: OVCAR-3
[31] = tested on: OVCAR-4
[32] = tested on: OVCAR-5
[33] = tested on: OVCAR-8
[34] = tested on: PC-3
[35] = tested on: RPMI-8226
[36] = tested on: SF-295
[37] = tested on: SF-539
[38] = tested on: SK-MEL-28
[39] = tested on: SK-MEL-2
[40] = tested on: SK-MEL-5
[41] = tested on: SK-OV-3
[42] = tested on: SN12C
[43] = tested on: SNB-19
[44] = tested on: SW-620
[45] = tested on: T47D
[46] = tested on: TK-10
[47] = tested on: U-251
[48] = tested on: UACC-257
[49] = tested on: UACC-62
[50] = tested on: UO-31

In the case of `CCc1n[nH]c(=O)n1CCO`, the GI50 [1] is reported as > 100 µM (inactive), the GI50 [2] is reported as > 100 µM (inactive) and the GI50 [3] is reported as > 100 µM (inactive). For the same compound, the GI50 [4] was > 100 µM (inactive), the GI50 [5] was > 100 µM (inactive) and the GI50 [6] was > 100 µM (inactive). The GI50 [7] was > 100 µM (inactive), the GI50 [8] was > 100 µM (inactive) and the GI50 [9] was > 100 µM (inactive). The GI50 [10] was > 100 µM (inactive), the GI50 [11] was > 100 µM (inactive) and the GI50 [12] was > 100 µM. The GI50 [13] was > 100 µM (inactive), the GI50 [14] was > 100 µM (inactive) and the GI50 [15] was > 100 µM (inactive). The GI50 [16] was > 100 µM (inactive), the GI50 [17] was > 100 µM (inactive) and the GI50 [18] was > 100 µM (inactive). For the same compound, the GI50 [19] was > 100 µM (inactive), the GI50 [20] was > 100 µM (inactive) and the GI50 [21] was > 100 µM (inactive). The GI50 [22] was > 100 µM (inactive), the GI50 [23] was > 100 µM (inactive) and the GI50 [24] was > 100 µM (inactive). The GI50 [25] was > 100 µM (inactive), the GI50 [26] was > 100 µM (inactive) and the GI50 [27] was > 100 µM (inactive). For the same compound, the GI50 [28] was > 100 µM (inactive), the GI50 [29] was > 100 µM (inactive) and the GI50 [30] was > 100 µM (inactive). For the same compound, the GI50 [31] was > 100 µM (inactive), the GI50 [32] was > 100 µM (inactive) and the GI50 [33] was > 100 µM (inactive). The GI50 [34] was > 100 µM (inactive), the GI50 [35] was > 100 µM (inactive) and the GI50 [36] was > 100 µM (inactive). The GI50 [37] was > 100 µM (inactive), the GI50 [38] was > 100 µM (inactive) and the GI50 [39] was > 100 µM (inactive). For the same compound, the GI50 [40] was > 100 µM (inactive), the GI50 [41] was > 100 µM (inactive) and the GI50 [42] was > 100 µM (inactive). The GI50 [43] was > 100 µM (inactive), the GI50 [44] was > 100 µM (inactive) and the GI50 [45] was > 100 µM (inactive). For the same compound, the GI50 [46] was > 100 µM (inactive), the GI50 [47] was > 100 µM (inactive) and the GI50 [48] was > 100 µM (inactive). For the same compound, the GI50 [49] was > 100 µM (inactive) and the GI50 [50] was > 100 µM (inactive).
